These results are taken from DBAASP.

In brackets after ≈: the same amount, converted by molar mass.

Test systems include Botrytis cinerea; Staphylococcus aureus; Pseudomonas aeruginosa; Bacillus subtilis 168; Escherichia coli B; Escherichia coli BW25113.
Experiment in all cases: ≥ marks a high value that may be exact or a test limit, other limits are often not marked, values filed in µg/mL are converted to µM
For assay [1], the system named is Escherichia coli K12 MG1655.
For assay [2], the system named is Staphylococcus aureus ATCC 12600.
Assay [3] concerns Candida albicans ATCC 10231.
Assay [4] has as its system Escherichia coli ATCC 11775.
Assay [5] concerns Staphylococcus aureus ATCC 43300.
Assay [6] has as its system Staphylococcus epidermidis.
In assay [7] the test system is Candida albicans F7-39/IDE99.
In assay [8] the test system is Micrococcus luteus CCM 144.
For assay [9], the system named is Pseudomonas aeruginosa ATCC 27853.
The subject of assay [10] is Escherichia coli ATCC 25922.
The test system of assay [11] is Staphylococcus aureus ATCC 6538P.
In assay [12] the test system is Klebsiella pneumoniae ATCC 10031.
The test system of assay [13] is Shigella dysenteriae ATCC 9752.
Assay [14] concerns Bacillus subtilis ATCC 6633.
The subject of assay [15] is Micrococcus luteus ATCC 10240.
Assay [16] deals with Salmonella enterica subsp. enterica serovar Typhimurium ATCC 14028.
Assay [17] relates to Staphylococcus aureus ATCC BAA-1556.

Usually MIC stands for the lowest concentration that inhibits growth of the organism. Read a low MIC as inhibition by little substance. In [1], `CC[C@H](C)[C@H](NC(=O)[C@H](CC(C)C)NC(=O)[C@H](Cc1ccc(O)cc1)NC(=O)[C@H](CC(C)C)NC(=O)[C@H](CC(C)C)NC(=O)[C@H](CC(C)C)NC(=O)[C@H](CCCN=C(N)N)NC(=O)[C@H](CC(C)C)NC(=O)[C@H](CCCN=C(N)N)NC(=O)[C@H](C)NC(=O)[C@H](C)NC(=O)[C@H](C)N)C(=O)N[C@H](C(=O)N[C@@H](CCCN=C(N)N)C(=O)N[C@@H](CCCN=C(N)N)C(=O)O)[C@@H](C)O` [AAARLRLLLYLITRR] came in with an MIC of no less than 71.1 µM.
With `CC[C@H](C)[C@H](NC(=O)CNC(=O)[C@H](CC(C)C)NC(=O)[C@@H](NC(=O)[C@@H]1CCCN1C(=O)[C@@H](N)CCC(=O)O)[C@@H](C)CC)C(=O)N[C@H](C(=O)N[C@H](C(=O)N[C@@H](CO)C(=O)N[C@@H](CC(C)C)C(=O)N[C@@H](CC(C)C)C(=O)N[C@@H](CCCCN)C(=O)N[C@@H](CO)C(=O)N[C@@H](CC(C)C)C(N)=O)[C@@H](C)O)[C@@H](C)CC` [EPILGIITSLLKSL], the MIC in assay [2] is no less than 66.8 µM; in assay [3], 66.8 µM (≈ 99.9 µg/mL); in assay [4], no less than 66.8 µM; with Botrytis cinerea it was 0.334 µM (≈ 0.5 µg/mL).
Turning to `CC[C@H](C)[C@H](NC(=O)CN)C(=O)N[C@@H](CCSC)C(=O)N[C@@H](CO)C(=O)N[C@@H](CO)C(=O)N[C@@H](CC(C)C)C(=O)N[C@@H](CCSC)C(=O)N[C@@H](CCCCN)C(=O)N[C@@H](CCCCN)C(=O)N[C@@H](CC(C)C)C(=O)N[C@@H](CCCCN)C(=O)N[C@@H](CCCCN)C(=O)N[C@@H](Cc1cnc[nH]1)C(=O)N[C@H](C(=O)N[C@@H](C)C(=O)N[C@@H](CCCCN)C(N)=O)[C@@H](C)CC` [GIMSSLMKKLKKHIAK], the MIC in the assay with Staphylococcus aureus was greater than 100 µM; in assay [5], greater than 100 µM; in [6] it was 10 µM (≈ 18.1 µg/mL); in the assay on Pseudomonas aeruginosa, 17 µM (≈ 30.8 µg/mL); against Bacillus subtilis 168 it was 7 µM (≈ 12.7 µg/mL); in [7], 12 µM (≈ 21.7 µg/mL). Also, the minimum inhibitory concentration (MIC) with Escherichia coli B was determined as 26 µM (≈ 47.1 µg/mL); in assay [8], 3 µM (≈ 5.44 µg/mL); in assay [9], 6.4 µM (≈ 11.6 µg/mL).
In the case of `CC[C@H](C)[C@H](NC(=O)[C@H](CC(C)C)NC(=O)[C@H](CCCCN)NC(=O)[C@@H](NC(=O)[C@@H](NC(=O)[C@H](Cc1cnc[nH]1)NC(=O)[C@@H]1CCCN1C(=O)[C@H](CC(C)C)NC(=O)[C@@H](NC(=O)[C@H](CCCCN)NC(=O)[C@H](C)NC(=O)[C@H](Cc1c[nH]c2ccccc12)NC(=O)[C@H](CC(C)C)NC(=O)[C@H](CO)NC(=O)[C@H](C)NC(=O)[C@H](CCSC)NC(=O)CN)C(C)C)C(C)C)C(C)C)C(=O)N[C@@H](CCCCN)C(=O)O` [GMASLWAKVLPHVVKLIK], the MIC against Staphylococcus aureus was determined as 6 µM (≈ 11.9 µg/mL); with Pseudomonas aeruginosa, 53.3 µM (≈ 106 µg/mL); with Bacillus subtilis 168, 4.7 µM (≈ 9.36 µg/mL); in [7], 8.7 µM (≈ 17.3 µg/mL); against Escherichia coli B, 2.3 µM (≈ 4.58 µg/mL); in [8] it was 1.7 µM (≈ 3.38 µg/mL).
As for `CC[C@H](C)[C@H](NC(=O)[C@H](Cc1ccccc1)NC(=O)[C@H](CO)NC(=O)[C@H](CC(C)C)NC(=O)[C@@H](NC(=O)[C@H](CCCN=C(N)N)NC(=O)CN)[C@@H](C)CC)C(=O)N[C@@H](CCCCN)C(=O)NCC(=O)N[C@@H](CC(C)C)C(=O)N[C@@H](C)C(=O)N[C@@H](CCC(=O)O)C(=O)N[C@@H](Cc1cnc[nH]1)C(=O)N[C@@H](CC(C)C)C(N)=O` [GRILSFIKGLAEHL], the minimal inhibitory concentration (MIC) in assay [2] was no less than 64.4 µM; in assay [3], 6.44 µM (≈ 9.99 µg/mL); in assay [4], no less than 64.4 µM; against Botrytis cinerea, 9.65 µM (≈ 15 µg/mL).
Take `CC(C)C[C@H](NC(=O)[C@H](Cc1c[nH]c2ccccc12)NC(=O)[C@H](CCCCN)NC(=O)[C@H](CCCCN)NC(=O)[C@@H](N)CC(C)C)C(=O)N[C@@H](CCCCN)C(=O)N[C@@H](CCCCN)C(N)=O` [LKKWLKK]: the MIC in assay [10] was greater than 212 µM; in assay [11] it was no less than 212 µM; in assay [12], no less than 212 µM; in assay [13] it was no less than 212 µM; in [14], no less than 212 µM; in assay [15] it was no less than 106 µM. The MIC in assay [16] and in assay [9] was greater than 212 µM in each case.
For the molecule `CC[C@H](C)[C@H](NC(=O)[C@H](C)NC(=O)CNC(=O)[C@H](Cc1c[nH]c2ccccc12)NC(=O)[C@H](CC(N)=O)NC(=O)[C@@H](N)CC(C)C)C(=O)N[C@@H](CC(C)C)C(=O)N[C@@H](CCCCN)C(=O)N[C@@H](CCCCN)C(=O)N[C@H](C(=O)N[C@H](C(=O)N[C@@H](CCCCN)C(N)=O)[C@@H](C)CC)[C@@H](C)CC` [LNWGAILKKIIK], the minimal inhibitory concentration (MIC) against Staphylococcus aureus was 7.3 µM (≈ 10.2 µg/mL); against Pseudomonas aeruginosa, 43.3 µM (≈ 60.4 µg/mL); with Bacillus subtilis 168 it was 2 µM (≈ 2.79 µg/mL); in assay [7], 6 µM (≈ 8.37 µg/mL); in the assay on Escherichia coli B, 4.3 µM (≈ 6 µg/mL); in [8], 2.7 µM (≈ 3.77 µg/mL).
`CC[C@H](C)[C@H](NC(=O)[C@@H]1CCCN1C(=O)[C@H](CCCN=C(N)N)NC(=O)[C@H](CCCN=C(N)N)NC(=O)[C@H](Cc1c[nH]c2ccccc12)NC(=O)[C@@H](N)CCCN=C(N)N)C(=O)N[C@@H](CCCN=C(N)N)C(=O)N[C@@H](CCCN=C(N)N)C(=O)N[C@@H](CCCN=C(N)N)C(=O)N1CCC[C@H]1C(=O)N[C@H](C(=O)N[C@@H](CCCN=C(N)N)C(=O)N1CCC[C@H]1C(=O)N1CCC[C@H]1C(=O)N[C@@H](Cc1ccccc1)C(=O)N[C@@H](Cc1ccc(O)cc1)C(=O)N[C@@H](CCCN=C(N)N)C(=O)O)[C@@H](C)CC` [RWRRPIRRRPIRPPFYR]: in the assay with Escherichia coli BW25113, the MIC worked out at 4 µM (≈ 9.52 µg/mL).
Same read-out and setting: the result for `CC[C@H](C)[C@H](NC(=O)[C@@H]1CCCN1C(=O)[C@H](CCCN=C(N)N)NC(=O)[C@H](CCCN=C(N)N)NC(=O)[C@H](Cc1c[nH]c2ccccc12)NC(=O)[C@@H](N)CCCN=C(N)N)C(=O)N[C@@H](CCCN=C(N)N)C(=O)N[C@@H](CCCN=C(N)N)C(=O)N[C@@H](CCCN=C(N)N)C(=O)N1CCC[C@H]1C(=O)N[C@H](C(=O)N[C@@H](CCCN=C(N)N)C(=O)N1CCC[C@H]1C(=O)N1CCC[C@H]1C(=O)N[C@@H](Cc1c[nH]c2ccccc12)C(=O)N[C@@H](Cc1ccc(O)cc1)C(=O)N1CCC[C@H]1C(=O)O)[C@@H](C)CC` [RWRRPIRRRPIRPPWYP] reads 4 µM (≈ 9.44 µg/mL).
In assay [17], `CC(C)C[C@H](NC(=O)[C@H](Cc1c[nH]c2ccccc12)NC(=O)[C@H](Cc1c[nH]c2ccccc12)NC(=O)[C@H](CC(C)C)NC(=O)[C@H](Cc1c[nH]c2ccccc12)NC(=O)[C@@H](N)Cc1c[nH]c2ccccc12)C(=O)N[C@@H](Cc1c[nH]c2ccccc12)C(=O)N[C@@H](Cc1c[nH]c2ccccc12)C(=O)N[C@@H](CCCN=C(N)N)C(N)=O` [WWLWWLWWR] came in with an MIC of 3.12 µM (≈ 4.74 µg/mL). That is a single-digit micromolar value.
